Assay results published in ChEMBL document CHEMBL4602652, “Development of cyclic peptide derivatives from the N-terminal region of LANA for targeting the nucleosome acidic patch” (Bioorg Med Chem Lett, 2020).
Calls of active or inactive are those of the source. The calls are words filed in the database; no cut-off is given here. Peptide text beside a SMILES is read from it.

What was measured:
[1] = organism: Homo sapiens; test: Inhibition of FITC-labelled LANA (1 to 23 residues) binding to recombinant human H2A/H2B harboring acidic patch at by fluorescence polarization assay
[2] = (§1) Inhibition of FITC-labelled LANA peptide (1 to 23 residues) binding to human HeLa mononucleosomes by fluorescence polarization assay
[3] = tested on: HeLa; test: as §1
[4] = organism: Homo sapiens; test: Inhibition of FITC-labelled LANA (1 to 23 residues) binding to recombinant human H2A/H2B harboring acidic patch at 100 uM by fluorescence polarization assay relative to control

inhibition [1] | Compound | also measured
Active | CSCC[C@@H]1NC(=O)CNC(=O)[C@@H]2CCCN2C(=O)[C@H](C)NC(=O)CNC(=O)[C@H]([C@@H](C)O)NC(=O)[C@H](CO)NC(=O)[C@H](CCCNC(=N)N)NC(=O)CNC(=O)[C@H](CO)NC(=O)[C@H](CCCNC(=N)N)NC(=O)[C@H](CC(C)C)NC(=O)[C@H](CCCNC(=N)N)NC1=O (cyclo(APGMRLRSGRSTG)) | –
– | CSCC[C@@H]1NC(=O)CNC(=O)CNC(=O)[C@H]([C@@H](C)O)NC(=O)[C@H](CO)NC(=O)[C@H](CCCNC(=N)N)NC(=O)CNC(=O)[C@H](CO)NC(=O)[C@H](CCCNC(=N)N)NC(=O)[C@H](CC(C)C)NC(=O)[C@H](CCCNC(=N)N)NC1=O (cyclo(GGMRLRSGRST)) | IC50 [2]: 204 nM; Ki [2]: 61 nM; inhibition [3]: Dose-dependent effect; inhibition [4]: 100%
Active | CSCC[C@@H]1NC(=O)[C@H]([C@@H](C)O)NC(=O)[C@H](CO)NC(=O)[C@H](CCCNC(=N)N)NC(=O)CNC(=O)[C@H](CO)NC(=O)[C@H](CCCNC(=N)N)NC(=O)[C@H](CC(C)C)NC(=O)[C@H](CCCNC(=N)N)NC1=O (cyclo(GRSTMRLRS)) | –
Active | Ac-GMRLRSGRSTG-NH2 | IC50 [2]: 614 nM; inhibition [3]: Dose-dependent effect
Active | Ac-MRLRSGRST-NH2 | –
Active | Ac-PGFRLRSGRSTGA-NH2 | –
Active | Ac-PGIRLRSGRSTGA-NH2 | –
Active | Ac-PGLRLRSGRSTGA-NH2 | –
Active | Ac-PGMRLRSGRSHGA-NH2 | –
Active | Ac-PGMRLRSGRSKGA-NH2 | –
Active | Ac-PGMRLRSGRSRGA-NH2 | –
– | Ac-PGMRLRSGRSTGA-NH2 | inhibition [4]: 40%
Active | Ac-PGVRLRSGRSTGA-NH2 | –
